Assays:
[1] = tested on: TGF-β-stimulated SMAD3 phosphorylation in BEAS-2B cells; test: Cellular ALK5 potency assay, inhibition of TGF-β stimulated pSMAD3 formation in BEAS-2B cells; type: cell-based; settings: Homo sapiens; inhibition of TGF-β stimulated pSMAD3 formation, BEAS-2B cells; read-out: BEAS2B pIC50 (converted)
In short: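 SMAD3 phosphorylation was measured by AlphaLISA after 30 min TGF-β stimulation (10 ng/mL final) of BEAS-2B cells preincubated 1 h with compound at 37 °C. Results given as pIC50.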

[2] = biological target: T1, recombinant human ALK5 (TGF-βR1) protein (Homo sapiens, UniProt P36897); test: Biochemical ALK5 (TGF-βR1) assay to measure pKi (LANCE Ultra ULight kinase assay); settings: apparent pKi from pIC50 by Cheng-Prusoff, read-out: ALK5 pKi (converted)
T1 construct: purchased Life Technologies PR9075A
T1 sequence (P36897 34-503): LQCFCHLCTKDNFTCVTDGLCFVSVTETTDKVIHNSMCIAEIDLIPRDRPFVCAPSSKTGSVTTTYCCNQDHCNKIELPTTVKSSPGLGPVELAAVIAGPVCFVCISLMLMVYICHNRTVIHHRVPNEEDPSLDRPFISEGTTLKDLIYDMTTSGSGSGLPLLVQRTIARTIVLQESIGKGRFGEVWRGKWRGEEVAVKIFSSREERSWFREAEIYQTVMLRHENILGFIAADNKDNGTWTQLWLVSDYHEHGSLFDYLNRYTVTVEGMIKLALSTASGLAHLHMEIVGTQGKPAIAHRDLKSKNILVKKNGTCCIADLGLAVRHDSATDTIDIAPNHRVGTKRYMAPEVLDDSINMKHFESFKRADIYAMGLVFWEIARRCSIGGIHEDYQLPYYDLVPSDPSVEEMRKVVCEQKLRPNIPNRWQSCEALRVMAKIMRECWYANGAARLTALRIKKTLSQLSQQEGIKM
In short: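 After a 60 min room-temperature preincubation of ALK5 with compound, phosphorylation proceeds 60 min at 37 °C on ATP addition (125 μM as 5× stock). Detection: Eu-labelled phospho-Thr1342 Topo IIα antibody in EDTA buffer, pH 7.0; emission 665 nm.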

Ki [2] | SMILES | IC50 [1]
< 0.0316 nM | Cc1cccc(-c2[nH]cnc2-c2ccc3ncc(-c4csc(C(=O)OC5CCNCC5)c4)cc3c2)n1 [Compound 751, 4-piperidyl 4-[6-[5-(6-methyl-2-pyridyl)-1H-imidazol-4-yl]-3-quinolyl]thiophene-2-carboxylate] | 25.1 to 158 nM
0.0398 to 0.316 nM | Cc1cccc(-c2[nH]cnc2-c2ccc3ncc(C4=CCC(C(=O)OCC5CNC5)CC4)cc3c2)n1 (centres unmarked) [Compound 36, azetidin-3-ylmethyl 4-[6-[5-(6-methyl-2-pyridyl)-1H-imidazol-4-yl]-3-quinolyl]cyclohex-3-ene-1-carboxylate] | 25.1 to 158 nM
0.398 to 3.16 nM | Cc1cccc(-c2[nH]cnc2-c2ccc3ncc(C(=O)OCCN)cc3c2)n1 [Compound 1040, 2-aminoethyl 6-[5-(6-methyl-2-pyridyl)-1H-imidazol-4-yl]quinoline-3-carboxylate] | 25.1 to 158 nM
0.398 to 3.16 nM | Cc1cccc(-c2[nH]ncc2-c2ccc3ncc(C(=O)OCCN4CCCC4)cc3n2)n1 [Compound 361, 2-pyrrolidin-1-ylethyl 6-[5-(6-methyl-2-pyridyl)-1H-pyrazol-4-yl]-1,5-naphthyridine-3-carboxylate] | 25.1 to 158 nM
0.398 to 3.16 nM | Cc1cccc(-c2n[nH]cc2-c2ccc3ncc(CNCCCN4CCOCC4)cc3n2)n1 [Compound 155, N-[[6-[3-(6-methyl-2-pyridyl)-1H-pyrazol-4-yl]-1,5-naphthyridin-3-yl]methyl]-3-morpholino-propan-1-amine] | 25.1 to 158 nM
0.0398 to 0.316 nM | Cc1cccc(-c2[nH]cnc2-c2ccc3ncc(-c4ccc(C(=O)OCCN5C[C@@H](C)N[C@@H](C)C5)cn4)cc3c2)n1 [Compound 1168, 2-[rac-(3S,5R)-3,5-dimethylpiperazin-1-yl]ethyl 6-[6-[5-(6-methyl-2-pyridyl)-1H-imidazol-4-yl]-3-quinolyl]pyridine-3-carboxylate] | 25.1 to 158 nM
0.0398 to 0.316 nM | Cc1cccc(-c2n[nH]cc2-c2ccc3ncc(NC(=O)C(F)(F)F)cc3n2)n1 [Compound 610, 2,2,2-trifluoro-N-[6-[3-(6-methyl-2-pyridyl)-1H-pyrazol-4-yl]-1,5-naphthyridin-3-yl]acetamide] | 25.1 to 158 nM
0.0398 to 0.316 nM | Cc1nc(-c2nc3ccccn3c2-c2ccc3ncc(-c4cn5c(n4)CNCC5)cc3n2)ccc1F [Compound 555, 2-[2-(5-fluoro-6-methyl-2-pyridyl)imidazo[1,2-a]pyridin-3-yl]-7-(5,6,7,8-tetrahydroimidazo[1,2-a]pyrazin-2-yl)-1,5-naphthyridine] | 25.1 to 158 nM
0.398 to 3.16 nM | Cc1cccc(-c2[nH]cnc2-c2ccc3ncc(C(=O)OCCN4CCCC4)cc3c2)n1 [Compound 737, 2-pyrrolidin-1-ylethyl 6-[5-(6-methyl-2-pyridyl)-1H-imidazol-4-yl]quinoline-3-carboxylate] | 25.1 to 158 nM
0.0398 to 0.316 nM | COc1[nH]nc(-c2cccc(C)n2)c1-c1ccc2ncc(NCCN3CCN(C(C)C)CC3)cc2n1 [Compound 394, N-[2-(4-isopropylpiperazin-1-yl)ethyl]-6-[5-methoxy-3-(6-methyl-2-pyridyl)-1H-pyrazol-4-yl]-1,5-naphthyridin-3-amine] | 200 to 1260 nM
0.0398 to 0.316 nM | Cc1cccc(-c2[nH]cnc2-c2ccc3ncc(-c4cc(C(=O)OCCN5CCNCC5)ccn4)cc3c2)n1 [Compound 1123, 2-piperazin-1-ylethyl 2-[6-[5-(6-methyl-2-pyridyl)-1H-imidazol-4-yl]-3-quinolyl]pyridine-4-carboxylate] | 25.1 to 158 nM
< 0.0316 nM | Cc1cccc(-c2[nH]cnc2-c2ccc3ncc(-c4ccc5c(c4)CNC5)cc3c2)n1 [Compound 699, 3-isoindolin-5-yl-6-[5-(6-methyl-2-pyridyl)-1H-imidazol-4-yl]quinoline] | < 20 nM
0.398 to 3.16 nM | Cc1cccc(-c2[nH]cnc2-c2ccc3ncc(C(=O)OCCN4CC5(CCCNC5)C4)cc3c2)n1 [Compound 890, 2-(2,6-diazaspiro[3.5]nonan-2-yl)ethyl 6-(5-(6-methylpyridin-2-yl)-1H-imidazol-4-yl)quinoline-3-carboxylate] | 200 to 1260 nM
0.0398 to 0.316 nM | Cc1cccc(-c2n[nH]cc2-c2ccc3ncc(-c4cn5c(n4)CN(CCN)CC5)cc3n2)n1 [Compound 427, 2-[2-[6-[3-(6-methyl-2-pyridyl)-1H-pyrazol-4-yl]-1,5-naphthyridin-3-yl]-6,8-dihydro-5H-imidazo[1,2-a]pyrazin-7-yl]ethanamine] | 200 to 1260 nM
0.0398 to 0.316 nM | Cc1cccc(-c2[nH]cnc2-c2ccc3ncc(C(=O)OC4CCNCC4)cc3c2)n1 [Compound 740, piperidin-4-yl 6-(5-(6-methylpyridin-2-yl)-1H-imidazol-4-yl)quinoline-3-carboxylate] | 25.1 to 158 nM
0.398 to 3.16 nM | CCOC(=O)c1c(-c2cccc(F)c2)cnc2ccc(-c3c[nH]nc3-c3cccc(C)n3)nc12 [Compound 859, ethyl 3-(3-fluorophenyl)-6-[3-(6-methyl-2-pyridyl)-1H-pyrazol-4-yl]-1,5-naphthyridine-4-carboxylate] | 200 to 1260 nM
3.98 to 31.6 nM | Cc1cccc(-c2n[nH]cc2-c2ccc3nccc(C4COCC(C)N4)c3n2)n1 (centres unmarked) [Compound 863, 3-methyl-5-[6-[3-(6-methyl-2-pyridyl)-1H-pyrazol-4-yl]-1,5-naphthyridin-4-yl]morpholine] | 200 to 1260 nM
0.0398 to 0.316 nM | Cc1cccc(-c2[nH]cnc2-c2ccc3ncc(C4=CCC(NC(=O)N5CCNCC5)CC4)cc3c2)n1 (centres unmarked) [Compound 153, N-[4-[6-[5-(6-methyl-2-pyridyl)-1H-imidazol-4-yl]-3-quinolyl]cyclohex-3-en-1-yl]piperazine-1-carboxamide] | 200 to 1260 nM
0.0398 to 0.316 nM | Cc1cccc(-c2n[nH]cc2-c2ccc3ncc(NCC4CNCCN4)cc3n2)n1 (centres unmarked) [Compound 269, 6-[3-(6-methyl-2-pyridyl)-1H-pyrazol-4-yl]-N-(piperazin-2-ylmethyl)-1,5-naphthyridin-3-amine] | 1580 to 10000 nM
3.98 to 31.6 nM | Cc1cccc(-c2n[nH]cc2-c2ccc3ncc(CCC(=O)O)cc3n2)n1 [Compound 63, 3-[6-[3-(6-methyl-2-pyridyl)-1H-pyrazol-4-yl]-1,5-naphthyridin-3-yl]propanoic acid] | 1580 to 10000 nM
0.0398 to 0.316 nM | CNC(=O)c1ccnc2ccc(-c3c[nH]nc3-c3cccc(C)n3)nc12 [Compound 818, N-methyl-6-[5-(6-methyl-2-pyridyl)-1H-pyrazol-4-yl]-1,5-naphthyridine-4-carboxamide] | 25.1 to 158 nM
< 0.0316 nM | Cc1cccc(-c2n[nH]cc2-c2ccc3ncc(N4CCC(N(C)C)C4)cc3n2)n1 (racemic) [Compound 505, rac-(3S)-N,N-dimethyl-1-[6-[3-(6-methyl-2-pyridyl)-1H-pyrazol-4-yl]-1,5-naphthyridin-3-yl]pyrrolidin-3-amine] | 25.1 to 158 nM
0.398 to 3.16 nM | Cc1cccc(-c2[nH]cnc2-c2ccc3ncc(-c4nccc(C(=O)O[C@H]5CCNC5)n4)cc3c2)n1 [Compound 1073, [(3S)-pyrrolidin-3-yl] 2-[6-[5-(6-methyl-2-pyridyl)-1H-imidazol-4-yl]-3-quinolyl]pyrimidine-4-carboxylate] | 1580 to 10000 nM
0.0398 to 0.316 nM | Cc1cccc(-c2nc3ccccn3c2-c2ccc3ncc(N4CCNCC4)cc3c2)n1 [Compound 287, 6-[2-(6-methyl-2-pyridyl)imidazo[1,2-a]pyridin-3-yl]-3-piperazin-1-yl-quinoline] | 25.1 to 158 nM
0.0398 to 0.316 nM | Cc1cccc(-c2n[nH]cc2-c2ccc3nccc(-c4cn[nH]c4)c3n2)n1 [Compound 834, 2-[3-(6-methyl-2-pyridyl)-1H-pyrazol-4-yl]-8-(1H-pyrazol-4-yl)-1,5-naphthyridine] | < 20 nM
0.0398 to 0.316 nM | Cc1cccc(-c2[nH]cnc2-c2ccc3ncc(-c4cnc(C(=O)O[C@@H]5CCNC5)nc4)cc3c2)n1 [Compound 1059, [(3R)-pyrrolidin-3-yl] 5-[6-[5-(6-methyl-2-pyridyl)-1H-imidazol-4-yl]-3-quinolyl]pyrimidine-2-carboxylate] | 200 to 1260 nM
0.0398 to 0.316 nM | Cc1cccc(-c2[nH]cnc2-c2ccc3ncc(C(=O)OCC4CC5(CNC5)C4)cc3c2)n1 [Compound 1116, 2-azaspiro[3.3]heptan-6-ylmethyl 6-[5-(6-methyl-2-pyridyl)-1H-imidazol-4-yl]quinoline-3-carboxylate] | 200 to 1260 nM
0.0398 to 0.316 nM | Cc1cccc(-c2[nH]cnc2-c2ccc3ncc(-c4cncc(C(=O)OCC5CNC5)c4)cc3c2)n1 [Compound 665, azetidin-3-ylmethyl 5-[6-[5-(6-methyl-2-pyridyl)-1H-imidazol-4-yl]-3-quinolyl]pyridine-3-carboxylate] | 200 to 1260 nM

Source: patent US11590116B2 (THERAVANCE BIOPHARMA R&D IP, LLC, priority 2019, dated 2023)
